Where no end group is shown, it is not given here.
Legend:
E11.5 AGM cells = experiment: Hematopoietic CFU and FACS assays on E11.5 AGM cells; assay type: cell-based, mouse; conditions: for GEMM formation: 50 μM
Description: Pulsating blood vessels like conditions were stimulated in vitro using Flexcell FX-4000 machine. To analyze roles of pharmacological targets in regulating the endothelial-to-HSC transition, mouse embryo-derived AGM or whole mouse embryo were exposed ex vivo with biomechanical stretching, chemicals, or drugs. Next, hematopoietic colony formation assays were performed by incubating mouse AGM-derived cells in StemCell M3434 media for seven days. Serial transplantation of AGM-derived HSCs in lethally irradiated SJL mice were performed. The stem cell frequency upon biomechanical stretching was analyzed using a limiting dilution assay. To characterize properties of AGM-HSC-derived blood cells in primary transplants, percentage chimerism and reconstitution was measured using FACS, globin transcripts were analyzed using quantitative reverse transcriptase-PCR, myeloperoxidase amount was measured using PicoKine ELISA kit, TCR-β rearrangement was analyzed using PCR for TCR-β locus, pre-immune IG detection was analyzed using Thermo-Fisher Mouse Ig Isotyping kit, and delayed-type hypersensitivity was analyzed by injecting sheep RBC (Rockland Immunochemicals) in the footpad of pre-sensitized mice. E11.5 AGM were harvested from C57BL6/J Cd45.2 mouse embryos, and a single cell suspension of a three-embryo equivalent of cells was seeded on each well of a BioFlex six-well culture plate ([…]). We cultured cells overnight with the application of cyclic strain (Flexcell® FX4000TM Tension System) and/or treatment with chemical modulators (2-100 μM Yoda1, 1 μM Nanaomycin, 100 μM Gdcl3, 1 uM GsMT×4, 5-20 μM 4αPDD, 10 uM GSK205). Next, harvested cells were used to perform transplant, fluorescence-activated cell sorting (FACS) analysis, and colony-forming unit (CFU) assays. For CFU assays, cells from AGM explant or ex vivo were plated in MethoCult GF M3434 media (StemCell Technologies). Seven days after seeding, we analyzed their capacity to make granulocyte, erythroid, macrophage, megakaryocyte (GEMM), granulocyte macrophage (GM), granulocyte (G), macrophage (M), and erythroid (E) colonies.

zebrafish embryos = experiment: HSPC marker expression in zebrafish embryos (whole mount in situ hybridization); assay type: in vivo
Description: (§1) Zebrafish embryos were treated with the following chemical modulators in E3 fish media: 100 uM L-NAME (Fisher Scientific), 50 uM Digitoxigenin (Sigma), 25-50 uM Yoda1 (Cayman Chemical), 1 uM Nanaomycin (Nana; Fisher Scientific), 100 uM Gadolinium chloride (GdCl3; Sigma), 5-10 uM 4α-phorbol 12, 13-didecanaote (4Apdd; Sigma), or GSK205 (10 uM).
Whole mount in situ hybridizations was performed as previously described.

[1] = system: cd41:eGFP+ HSCs emerging from flk1:mCherry+ endothelial cells; experiment: Time-lapse confocal imaging of cd41:eGFP+ HSCs emerging from flk1:mCherry+ endothelial cells in transgenic embryos; assay type: in vivo, zebrafish; conditions: embryos concurrently treated with or without Yoda1
Description: Mice were purchased Cd45.2 (C57BL6/J) and Cd45.1 (SJL) from The Jackson Laboratory and zebrafish morpholinos from GeneTools. Microangiography was performed by injecting fluorescent-labeled dextran dye in the atrium of zebrafish heart and its passage was recorded using live imaging. Immunostaining of zebrafish heart and mouse AGM were analyzed using an inverted fluorescent microscope. Cardiac tamponade, heart rate, and pulse frequency were analyzed in zebrafish embryos using bright field imaging or time-lapse confocal microscopy. The movement of red blood cells in blood vessels was analyzed as well as the endothelial-to-HSC transition in zebrafish transgenic embryos using time-lapse confocal imaging.
as §1
cd41:eGFP were crossed with flk1:mCherry zebrafish and flk1:mCherry with lcr:eGFP zebrafish and injected morpholino in their transgenic embryos. […] The relative movement of lcr:eGFP^+ red blood cells was analyzed in the context of flk1:mCherry^+ endothelium. We performed image analysis using Imaris (Bitplane) software.

[Cl][Gd]([Cl])[Cl] [GdCl3, Gadolinium chloride] was tested, and the “formation of multipotent hematopoietic progenitors potentiated by 10% cyclic strain” value (E11.5 AGM cells; 10% cyclic strain plus stretch-activated receptor inhibitor) was “attenuated” and the HSPC expression (zebrafish embryos; zebrafish embryos) was “attenuated HSPC expression in zebrafish embryos to the level of sih-MO embryos”.
For Cc1oc(-c2ccccc2)cc1C(=O)O [Jedi1], the GEMM formation (E11.5 AGM cells) was “enhances GEMM formation”.
Cc1oc(-c2cccs2)cc1C(=O)O [Jedi2] was tested, and the GEMM formation (E11.5 AGM cells) was “enhances GEMM formation”.
With COC(=O)[C@@H](N)CCCNC(=N)N[N+](=O)[O-] [L-NAME] the HSPC formation (zebrafish embryos; cdh5-MO embryos) was “does not impact HSPC formation in cdh5-MO embryos” and the HSPC formation (zebrafish embryos; control embryos) was “attenuates HSPC formation in control embryos”.
CC1OC(CC(=O)O)CC2=C1C(=O)c1c(O)cccc1C2=O (centres unmarked) [Nanaomycin] was tested, and the “Piezo1 activation (Yoda1)-mediated increase in HSC formation” value [1] was “attenuated the Piezo1 activation-mediated increase in HSC formation”, the “hematopoietic colony formation stimulated by cyclic strain or Yoda1” value (E11.5 AGM cells; cyclic strain or Yoda1 in the presence of Nanaomycin) was “attenuates the endothelial-to-HSC transition stimulated by circumferential stretch or Piezo1 activation” and the “phenotype of hematopoietic cells after treatment” value (E11.5 AGM cells; stretch- or Piezo1 activation-treated AGM cells) was “reverts hematopoietic cells into phenotypic endothelial cells”. The HSPC marker expression (zebrafish embryos; control and cdh5-MO embryos) was “attenuated HSPC marker expression in control and cdh5-MO embryos”.
With “GsMtX4: pharmacological inhibition of Piezo1 (GCLEFWWKCNPNDDKCCRPKLKCSKLFKLCNFSF; ends and bridges not checked; cysteine pairing not given here; UniProt Q7YT39 47-80, looked up)” the “hematopoietic colony formation induced by cyclic strain” value (E11.5 AGM cells; cyclic strain plus Piezo1 inhibitor) was “attenuates the inductive impact of cyclic strain on the endothelial-to-HSC transition”.

— patent US20230041065A1, “METHODS FOR GENERATING HEMATOPOIETIC STEM CELLS” (The Brigham and Women`s Hospital, Inc., priority 2019, published 2023)
